Entries after “also recorded” stand apart in the source; their conditions may differ. Non-standard residues stand in square brackets, D forms with d. No end group written: not given here.
Key:
[1] = system: stretch-activated channels (SACs); assay: SAC currents, outside-out patch of rat astrocytes (pressure clamp); type: cell-based; details: for inhibition of SACs (averaged current): 5 μM, rat astrocyte outside-out patch, FIG. 2
Protocol: (§1) Primary reactive rat astrocytes cultures (passages 4 to 10) were prepared as previously described. Primary cultures of chick heart cells were prepared from 11-day-old embryos as previously described (Bett et al., J. Membr. Biol. 173, 237-254, 2000).
(§2) Outside-out patches were formed using pipettes containing 140 mM KCl, 2 mM MgCl2, 10 mM HEPES and 0.5 mM EGTA (as K ? salts). SAC currents were recorded using an Axopatch 200B patch clamp, with pClamp9 software and a Digidata 1322A acquisition system (Axon Instruments). Pressure was applied to the patch pipette with an HSPC-1 pressure clamp, and the patch was perfused using an ALA MP285 perfusion system (ALA Scientific Instruments). GsMTx4 or analog was dissolved in the perfusion solution: 140 mM NaCl, 10 mM Na-HEPES, 5 mM KCl, and 1 mM MgCl2. All experiments were repeated […] times.

gA channels = assay: Gramicidin (gA) channel gating in lipid bilayer; type: biochemical
Protocol: FIG. 3 is a representation of the effect of GsMTx4 on gA channels. a, Current traces before and after addition of 200 nM GsMTx4 to both sides of a bilayer doped with chain-shortened des-Val 1-Gly 2-gA (gA2(13)) and [Ala 1]gA (AgA(15)) (numbers in parenthesis denote number of residues in the sequence): gA2 is the enantiomer of gA20. b, c, Single-channel currents (b) and lifetimes (c) as a function of GsMTx4 concentration (see Methods). d, Average lifetime (t) as a function of channel length, helix sense and identity of the aromatic at the channel/solution interface. gA2(13) and AgA(15) as above, AgA2(15) is [D-Ala 1]gA2, gT is [Tyr9,11,13,15]gA (ref. 21). 200 nM GsMTx4; columns and error bars denote mean±s.d. (n≧3).
The effect of L-GsMTx-4 on gA gating was first determined. gA channels are dimers formed by the transbilayer association of monomers in opposing monolayers (O'Connell et al., Science 250, 1256-1259, 1990). Channel formation is generally associated with local bilayer thinning, which makes gA monomer ⇄ dimer equilibrium and thus the channel lifetime and appearance rate sensitive to bilayer thickness, elastic moduli and curvature stress. Thus, if GsMTx4 binds to the lipid bilayer, one would expect it to also alter the lipid packing adjacent to the channel and thus the gA gating kinetics and, because it is cationic decrease the channel current.

[2] = system: stretch-activated channels (SACs); assay: SAC currents, outside-out patch of chick heart cells; type: cell-based
Protocol: as §1, §2

TRPC1 = assay: Stretch activated channels in CHO cells transfected to express TRPC1; type: cell-based; details: CHO cells expressing TRPC1
cationic SACs [3] = assay: Inhibition and gating of cationic SACs in vertebrate cell types (affinity, apparent rates); type: cell-based
Protocol: GsMTx4 inhibits ubiquitous cationic SACs in a variety of vertebrate cell types (200-600 nM, for example, chick heart, rat astrocytes and skeletal muscle, and human smooth muscle) (Gottlieb et al., Current Drug Targets—CNS & Neurological Disorders 3:287-295, 2004) despite the fact that they have different kinetic properties and presumably different structure. […] While not intending to be bound by any particular theory, it is believed, based on predictions using the Poisson-Boltzmann models, that this effect is seen when GsMTx4 is located within about 1.5 nm of the channel vestibule.
To determine if GsMTx4 functions by altering bilayer properties, using the tryptophan fluorescence (Ladokhin et al., supra) of GsMTx4, we measured its binding to large unilamellar lipid vesicles. The partition coefficient, defined as ([GsMTx4]bil/[Lipid])/([GsMTx4]aq/[H2O]) (where the subscripts denote the bilayer and aqueous phases, respectively, for example see White et al., Methods Enzymol. 295, 62-87, 1998), was ˜3×10^5 corresponding to an adsorption coefficient of 10 ^−3 cm (defined as ^2bil/[GsMTx4 ]aq, where ^2bil denotes the surface density, in moles per unit area). […] This has two implications. First, the intrinsic affinity between a lipid-bound GsMTx4 and the channel could be quite modest and yet account for the observed KD (Kim et al., Biophys. J. 60, 135148, 1991). Second, the mean surface density of GsMTx4 is sufficiently high that fast exchange (50 ms) between the bulk bilayer and the lipids adjacent to the channel can alter the local (and global) bilayer mechanical properties. The apparent association and dissociation rates for SAC effects (Ka≈10^6 M^−1 s^−1, KD≈0.2 s^−1) are consistent with such a fast exchange (as well as slower, more specific binding).

[4] = Binding to large unilamellar lipid vesicles by tryptophan fluorescence; type: physicochemical
Protocol: Fluorescence measurements were performed as described by Ladokhin et al. (Anal. Biochem. 285, 235245, 2000) with an AMJNCO-Bowman Series 2 spectrofluorimeter. The excitation and emission wavelengths were 280 nm (8 nm band pass, 08 polarizer) and 346 nm (16 nm band pass, 908 polarizer). Large unilamellar vesicles of egg lecithin (Avanti Polar Lipids) were formed by extrusion. Tryptophan (Sigma) and GsMTx4 titration experiments were performed in 8 mM phosphate buffer containing 1 mM EGTA at pH 7. Three spectra were collected at each lipid concentration with both tryptophan and GsMtx4 (both at 30μM). After background subtraction, the mean fluorescence intensity at each lipid concentration was corrected for vesicle scattering (Ladokhin et al., Anal. Biochem, 285, 235245, 2000) and normalized to the zero lipid fluorescence intensity. The results are reported assuming a vesicle diameter of 130 nm, and area per lipid in the monolayer of 0.7 nm2.
To determine if GsMTx4 functions by altering bilayer properties, using the tryptophan fluorescence (Ladokhin et al., supra) of GsMTx4, we measured its binding to large unilamellar lipid vesicles. […]

cationic SACs [5] = details: chick heart, rat astrocytes and skeletal muscle, human smooth muscle; cited from earlier work
[6] = 5 mM GsMTx4 [sic], chick heart outside-out patch

D-GsMTx4: All-D-amino-acid enantiomer of GsMTx4, SEQ ID NO:1 GCLEFWWKCNPNDDKCCRPKLKCSKLFKLCNFSF-amide (G[dC][dL][dE][dF][dW][dW][dK][dC][dN][dP][dN][dD][dD][dK][dC][dC][dR][dP][dK][dL][dK][dC][dS][dK][dL][dF][dK][dL][dC][dN][dF][dS][dF]-NH2; not fully specified (bridges); printed as GCLEFWWKCNPNDDKCCRPKLKCSKLFKLCNFSF-amide; ends and bridges not checked; also: three disulfides after oxidative folding, pairing not given here)
inhibition of SACs (averaged current) [1]: equivalent efficacy to the wild type L-form; also recorded: inhibit SACs with similar efficacy to GsMTx4; also recorded: at least as potent and may be more potent than L-GsMTx-4 | increase in gA channel appearance rates (gA channels; 400 nM D-GsMTx4): 10 fold | increase in gA channel lifetime (gA channels; 400 nM D-GsMTx4): 4 fold

GsMTx4
suppression of average inward current ([1]; 5 μM GsMTx4 (b40 also prints 5 mM), outside-out astrocyte patch): 80% | open state dwell time distribution ([1]; 5 μM GsMTx4, data not shown): not affected | inhibition of SACs (averaged current) [1]: both inhibit SACs | membrane tension required for SAC activation ([1]; applied to extracellular face, FIGS. 1a and 1b): increasing the membrane tension required for activation | reduction of average inward currents [2, 6]: 70% | reduction of average outward currents [2, 6]: 90% | unitary current amplitude, inward ([2]; 5 mM GsMTx4 [sic], 250 mV pipette potential as printed, control 1.74 pA): 1.58 pA | unitary current amplitude, outward ([2]; 5 mM GsMTx4 [sic], pipette potential printed 150 mV / 50 mV, control 1.10 pA): 1.08 pA | change in outward unitary current amplitude ([2]; in presence of GsMTx4): no change; also recorded: no observable effect | reduction in inward unitary current amplitude ([2]; in presence of GsMTx4): 10% | inhibition of stretch activated channels (TRPC1): inhibited stretch activated channels | apparent association rate for SAC effects (Ka) (cationic SACs [3]): ≈ 10^6 M^−1 s^−1 | apparent dissociation rate for SAC effects (KD) (cationic SACs [3]): ≈ 0.2 s^−1 | Kd (cationic SACs [3]; SAC gating, read-out: effective KD for gating): 500 nM | adsorption coefficient ([4]; corresponding to the partition coefficient): 10 ^−3 cm | partition coefficient ([GsMTx4]bil/[Lipid])/([GsMTx4]aq/[H2O]) ([4]; large unilamellar lipid vesicles, pH 7): ~3×10^5 | gA single-channel current (gA channels; FIG. 3b): reduces the single-channel current | increase in gA channel appearance rate (gA channels; GsMTx4, FIG. 3): 10-25 fold | increase in gA open channel lifetime (gA channels; GsMTx4, FIG. 3c): approximately 2 fold | concentration inhibiting cationic SACs (cationic SACs [5]): 200 to 600 nM

Source: patent US7259145B2, “Mechanically activated channel blocker” (The Research Foundation of State University of New York, priority 2004, dated 2007)
